Data on ten molecules can be found in ChEMBL document CHEMBL1153647, “Inhibitors of human leukocyte elastase. 3.1 inhibition by tetrahydrobenzisothiazolinylmethyl aryl carboxylates” (Bioorg Med Chem Lett, 1995).

Assay [1] has as its target T1, Neutrophil elastase (Homo sapiens, UniProt P08246).
T1 sequence (P08246 whole entry): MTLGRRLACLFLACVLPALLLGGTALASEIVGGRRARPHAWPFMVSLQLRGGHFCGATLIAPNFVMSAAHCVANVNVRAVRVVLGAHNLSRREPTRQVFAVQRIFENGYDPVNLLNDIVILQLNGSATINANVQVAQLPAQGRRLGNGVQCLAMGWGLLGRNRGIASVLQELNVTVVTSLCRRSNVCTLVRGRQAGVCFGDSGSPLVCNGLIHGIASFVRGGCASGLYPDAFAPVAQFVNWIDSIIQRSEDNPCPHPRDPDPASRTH
The experiment in a line: Ratio of Kreact to that of Kinact was determined on human leukocyte elastase(HLE).

Assay [2] deals with T2, Neutrophil elastase (Homo sapiens) (UniProt P08246).
T2 sequence (whole entry): T1 sequence (P08246 whole entry)
Description: (§1) Compound was evaluated for the inhibitory activity against Human leukocyte elastase (HLE)

Assay [3] concerns the target T2, Neutrophil elastase (Homo sapiens). The source holds these as a separate data set.
Description: as §1
The target in assay [4] is T1, Neutrophil elastase. Kind of assay: Observed binding affinity against Human leukocyte elastase (HLE).
Assay [5] has as its target T2, Neutrophil elastase (Homo sapiens). The experiment in a line: Compound was evaluated for the inhibitory activity against Human leukocyte elastase.

pKi: −log10 of the molar value.

By pKi is commonly meant the negative decadic logarithm of the Ki, by convention in mol/L. In the case of `O=C(OCN1C(=O)C2=C(CCC2)S1(=O)=O)c1c(Cl)cccc1Cl`, the negative-log Ki (pKi) at Neutrophil elastase [1] was 8.30.

Regarding `CC(C)c1cccc2c1C(=O)N(COC(=O)c1c(Cl)cccc1Cl)S2(=O)=O`, the Kreact in assay [2] is 2.7e-05 s⁻¹. Further, the K inact in assay [3] was 900000 M⁻¹ s⁻¹.

With `CCC1CCCC2=C1C(=O)N(COC(=O)c1c(Cl)cccc1Cl)S2(=O)=O` (stereo not drawn), the pKi at Neutrophil elastase [4] and at Neutrophil elastase [1] was 9.15 each time. The molecule also yielded a Kreact in assay [2] of 5.8e-05 s⁻¹. In assay [3], this molecule returned a K inact of 83000 M⁻¹ s⁻¹.

For the molecule `CC1CCCC2=C1C(=O)N(COC(=O)c1c(Cl)cccc1Cl)S2(=O)=O` (stereo not drawn), the negative logarithm of the Ki (pKi) on Neutrophil elastase [4] and at Neutrophil elastase [1] was 9.00 throughout. This molecule also came in with a Kreact in assay [2] of 3.6e-05 s⁻¹. Besides, the K inact in assay [3] is 36000 M⁻¹ s⁻¹.

As for `CCc1cccc2c1C(=O)N(COC(=O)c1c(Cl)cccc1Cl)S2(=O)=O`, the pKi at Neutrophil elastase [4] was 10.15.

For the molecule `O=C(OCN1C(=O)C2=C(C3CCC2C3)S1(=O)=O)c1c(Cl)cccc1Cl` (stereo not drawn), on Neutrophil elastase [1], the pKi was 9.10.

As to `CC1(C)CCCC2=C1C(=O)N(COC(=O)c1c(Cl)cccc1Cl)S2(=O)=O`, the pKi at Neutrophil elastase [1] is 9.00. Moreover, the Kreact in assay [2] is 1.8e-05 s⁻¹. Further, the K inact in assay [3] was 18500 M⁻¹ s⁻¹.

In assay [5], `O=C(OCN1C(=O)C2=C(CCCC2)S1(=O)=O)c1c(Cl)cccc1Cl` registered a K inact of 3300 M⁻¹ s⁻¹ and a Kreact of 5.9e-05 s⁻¹.

For the molecule `CC(C)C1CCCC2=C1C(=O)N(COC(=O)c1c(Cl)cccc1Cl)S2(=O)=O` (stereo not drawn), the pKi on Neutrophil elastase [4] and on Neutrophil elastase [1] was 9.00 in each case. The molecule further showed a Kreact in assay [2] of 1e-05 s⁻¹. The K inact in assay [3] came to 10000 M⁻¹ s⁻¹.

Take `O=C(OCN1C(=O)C2=C(CCCCC2)S1(=O)=O)c1c(Cl)cccc1Cl`: on Neutrophil elastase [1], the pKi was 7.00.
